# Source: paper PMC8580996, “2-Oxoglutarate derivatives can selectively enhance or inhibit the activity of human oxygenases” (Nature Communications, 2021)
# Several values for one entry are separate records, joined by “and”; a condition that tells them apart may be missing. Equal entries are not always repeated.
# Tests used:
# [1] = molecular target: T1, AspH (Homo sapiens, UniProt Q12797); test: Competition assay in a single reaction vessel, AspH-catalyzed hydroxylation (SPE-MS); type: biochemical; conditions: for substrate hydroxylation (% conversion): AspH
# T1 construct: the tetratricopeptide repeat domain (His6-AspH315-758), was produced and purified as previously reported; made in house
# T1 sequence (Q12797 315-758): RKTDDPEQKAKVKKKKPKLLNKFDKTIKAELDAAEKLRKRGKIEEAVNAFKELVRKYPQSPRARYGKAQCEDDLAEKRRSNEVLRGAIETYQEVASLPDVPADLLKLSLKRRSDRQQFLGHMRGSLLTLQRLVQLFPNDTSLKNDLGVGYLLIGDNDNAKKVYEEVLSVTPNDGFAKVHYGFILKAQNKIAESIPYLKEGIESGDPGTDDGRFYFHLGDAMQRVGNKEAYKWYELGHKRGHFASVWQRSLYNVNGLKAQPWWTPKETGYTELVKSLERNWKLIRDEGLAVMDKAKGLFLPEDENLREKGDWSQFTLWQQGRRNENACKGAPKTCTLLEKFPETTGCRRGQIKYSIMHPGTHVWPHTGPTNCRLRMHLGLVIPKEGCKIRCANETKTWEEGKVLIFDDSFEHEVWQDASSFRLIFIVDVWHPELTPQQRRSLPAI
# Experimental: Mean of three independent runs (n = 3; mean ± SD). […] Cosubstrates: a 20 μM 2OG; b 20 μM 2OG; c 20 μM 1; d 20 μM 12; e 20 μM 12 and 100 μM 2OG; f 100 μM 14. Source data are provided as a Source Data file.
# Mean of three independent runs (n = 3; mean ± SD). […] Source data are provided as a Source Data file.
# Peptide turnover was monitored by SPE-MS using the same instrument configuration (with the exception that the peptides were eluted from the SPE cartridge with 0.1%v/v aqueous formic acid in 80/20 v/v acetonitrile/water) as described above.
# FIH and AspH-catalyzed peptide hydroxylations were analyzed simultaneously using SPE-MS as described in the
# Methods section; competition experiments were performed in the same reaction vessel using equimolar 2OG
# oxygenase and substrate concentrations. […]
# Source data are provided as a Source Data file.
# FIH and AspH-catalyzed peptide hydroxylations were analyzed simultaneously using SPE-
# MS as described in the Methods section; competition experiments were performed in the same reaction vessel
# using equimolar 2OG oxygenase and substrate concentrations. […]
# 2OG, 100 μM 14. Source data are provided as a Source Data file.
# [2] = molecular target: FIH (Homo sapiens, UniProt Q9NWT6); test: FIH steady-state kinetic parameters (SPE-MS, initial hydroxylation rates); type: biochemical; set-up: slope of initial reaction rate: unit not given here
# FIH, sequence (Q9NWT6 whole entry): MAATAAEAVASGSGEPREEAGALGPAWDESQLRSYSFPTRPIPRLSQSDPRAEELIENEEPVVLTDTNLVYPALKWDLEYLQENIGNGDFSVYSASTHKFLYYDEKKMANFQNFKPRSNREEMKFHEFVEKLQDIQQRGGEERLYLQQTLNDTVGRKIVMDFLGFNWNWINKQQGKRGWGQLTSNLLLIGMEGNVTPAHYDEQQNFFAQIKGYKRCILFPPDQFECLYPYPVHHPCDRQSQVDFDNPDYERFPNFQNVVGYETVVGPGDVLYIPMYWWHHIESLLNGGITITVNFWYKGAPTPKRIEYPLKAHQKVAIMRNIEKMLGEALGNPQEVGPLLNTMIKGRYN
# Experimental: Final 2OG/2OG derivative concentrations are given in Supplementary Figs. 5 and 6. Reactions were monitored with a rate of ~1 sample/40 s using the same SPE-MS configuration as described above. Data were analyzed as described above and the slopes of the initial reaction rates (Supplementary Figs. 5 and 6) fitted to a Michaelis–Menten plot using non-linear regression (GraphPad Prism 5). […]
# determine kinetic parameters for 2OG derivatives (continues on the following page). Maximum velocities (vapp ) and Michaelis constants (Kapp) of FIH were determined in independent triplicates for 2OG and the 2OG […]
# SPE-MS as described in the Methods section. […]
# acid (LAA), and 20 μM ammonium iron(II) sulfate hexahydrate (FAS, (NH4)2Fe(SO4)2·6H2O) in buffer (50 mM […]
# Tris, 50 mM NaCl, pH 7.5, 20° C). […]
# data are provided as a Source Data file. […]
# concentrations of 2OG; (b) hydroxylation rates used to determine kinetic parameters of FIH for 2OG; (c) time […]
# 3-methyl-2OG (1); (d) hydroxylation rates used to determine kinetic parameters of FIH for 1; (e) time course of […]
# 2OG (12); (f) hydroxylation rates used to determine kinetic parameters of FIH for 12; (g) time course of the FIH- […]
# (h) hydroxylation rates used to determine kinetic parameters of FIH for 14; (i) time course of the FIH-catalyzed […]
# (carboxycarbonyl)cyclopentane-1-carboxylic acid (22); (j) hydroxylation rates used to determine kinetic parameters of FIH for 22.
# Supplementary Figure 6. Hydroxylation rates of FIH-catalyzed CA1-20 hydroxylations used to determine kinetic parameters for 2OG derivatives (continues on the following page). Maximum velocities (vapp ) and […]
# ammonium iron(II) sulfate hexahydrate (FAS, (NH4)2Fe(SO4)2·6H2O) in buffer (50 mM Tris, 50 mM NaCl, pH […]
# Source data are provided as a Source […]
# of 2OG; (b) hydroxylation rates used to determine kinetic parameters of FIH for 2OG; (c) time course of the FIH-catalyzed hydroxylation reaction of the CA1-20 peptide for the shown concentrations of 3-methyl-2OG (1); (d) hydroxylation rates used to determine kinetic parameters of FIH for 1; (e) time course of the FIH -catalyzed hydroxylation reaction of the CA 1-20 peptide for the shown concentrations of 4 -methyl-2OG (12); (f) hydroxylation rates used to determine kinetic parameters of FIH for 12; (g) time course of the FIH-catalyzed hydroxylation reaction of the CA1-20 peptide for the shown concentrations of 4-ethyl-2OG (14); (h) hydroxylation rates used to determine kinetic parameters of FIH for 14; (i) time course of the FIH-catalyzed hydroxylation reaction of the CA1-20 peptide for the shown concentrations of 3-(carboxycarbonyl)cyclopentane-1-carboxylic acid (22); (j) hydroxylation rates used to determine kinetic parameters of FIH for 22.
smiles,measurement,setting,value
"CC(CC(=O)C(=O)O)C(=O)O (centres unmarked) [compound 12, 4-methyl-2OG]",time to complete AspH-catalyzed hydroxylation of hFX-EGFD1_86–124-4Ser,"[1]; Fig 2e, 20 μM 12 and 100 μM 2OG",~ 2 min
same,substrate hydroxylation (% conversion),"[1]; Fig 2e, 20 μM 12 and 100 μM 2OG, 1.918 min",100
same,substrate hydroxylation (% conversion),"[1]; Fig 2e, 20 μM 12 and 100 μM 2OG, 2.15883 min",100
same,substrate hydroxylation (% conversion),"[1]; Fig 2e, 20 μM 12 and 100 μM 2OG, 2.6405 min",100
same,substrate hydroxylation (% conversion),"[1]; Fig 2e, 20 μM 12 and 100 μM 2OG, 2.88117 min",100
same,substrate hydroxylation (% conversion),"[1]; Fig 2e, 20 μM 12 and 100 μM 2OG, 3.12267 min",100
same,substrate hydroxylation (% conversion),"[1]; Fig 2e, 20 μM 12 and 100 μM 2OG, 3.36583 min",100
same,substrate hydroxylation (% conversion),"[1]; Fig 2e, 20 μM 12 and 100 μM 2OG, 3.60733 min",100
same,substrate hydroxylation (% conversion),"[1]; Fig 2e, 20 μM 12 and 100 μM 2OG, […]",100
same,AspH-catalyzed hFX-EGFD1_86–124-4Ser hydroxylation,"[1]; Fig 2d, 20 μM 12, after ~10 min",~ 90%
same,SPE-MS determined concentration of hydroxylated HIF-1a peptide,"[2]; 0.25 uM compound 12, time 0.699833 min",0.04437 µM and 0.04741 µM and 0.03831 µM
same,SPE-MS determined concentration of hydroxylated HIF-1a peptide,"[2]; 0.25 uM compound 12, time 2.098 min",0.08198 µM and 0.1152 µM and 0.1017 µM
same,SPE-MS determined concentration of hydroxylated HIF-1a peptide,"[2]; 0.5 uM compound 12, time 0.699833 min",0.06422 µM and 0.08062 µM and 0.07548 µM
same,SPE-MS determined concentration of hydroxylated HIF-1a peptide,"[2]; 0.5 uM compound 12, time 2.098 min",0.1727 µM and 0.153 µM and 0.1556 µM
same,SPE-MS determined concentration of hydroxylated HIF-1a peptide,"[2]; 0.5 uM compound 12, time 2.797 min",0.211 µM
same,SPE-MS determined concentration of hydroxylated HIF-1a peptide,"[2]; 1 uM compound 12, time 0.699833 min",0.1124 µM and 0.1213 µM and 0.1053 µM
same,SPE-MS determined concentration of hydroxylated HIF-1a peptide,"[2]; 1 uM compound 12, time 2.098 min",0.2072 µM and 0.2617 µM and 0.2659 µM
same,SPE-MS determined concentration of hydroxylated HIF-1a peptide,"[2]; 1 uM compound 12, time 2.797 min",0.2567 µM and 0.3212 µM and 0.319 µM
same,SPE-MS determined concentration of hydroxylated HIF-1a peptide,"[2]; 2 uM compound 12, time 0.699833 min",0.1658 µM and 0.1554 µM and 0.162 µM
same,SPE-MS determined concentration of hydroxylated HIF-1a peptide,"[2]; 2 uM compound 12, time 2.098 min",0.3451 µM and 0.3558 µM and 0.3835 µM
same,SPE-MS determined concentration of hydroxylated HIF-1a peptide,"[2]; 2 uM compound 12, time 2.797 min",0.4027 µM and 0.4334 µM and 0.458 µM
same,SPE-MS determined concentration of hydroxylated HIF-1a peptide,"[2]; 4 uM compound 12, time 0.699833 min",0.2736 µM and 0.2242 µM and 0.2062 µM
same,SPE-MS determined concentration of hydroxylated HIF-1a peptide,"[2]; 4 uM compound 12, time 2.098 min",0.6118 µM and 0.4979 µM and 0.4845 µM
same,SPE-MS determined concentration of hydroxylated HIF-1a peptide,"[2]; 4 uM compound 12, time 2.797 min",0.7774 µM and 0.6268 µM and 0.6241 µM
same,SPE-MS determined concentration of hydroxylated HIF-1a peptide,"[2]; 8 uM compound 12, time 0 min",0.06164 µM and 0.06905 µM and 0.05066 µM
same,SPE-MS determined concentration of hydroxylated HIF-1a peptide,"[2]; 8 uM compound 12, time 0.699833 min",0.2593 µM and 0.272 µM and 0.2286 µM
same,SPE-MS determined concentration of hydroxylated HIF-1a peptide,"[2]; 8 uM compound 12, time 2.098 min",0.6058 µM and 0.6256 µM and 0.5278 µM
same,SPE-MS determined concentration of hydroxylated HIF-1a peptide,"[2]; 8 uM compound 12, time 2.797 min",0.7712 µM and 0.7937 µM and 0.6846 µM
same,SPE-MS determined concentration of hydroxylated HIF-1a peptide,"[2]; 16 uM compound 12, time 0 min",0.09407 µM and 0.05485 µM and 0.06025 µM
same,SPE-MS determined concentration of hydroxylated HIF-1a peptide,"[2]; 16 uM compound 12, time 0.699833 min",0.2985 µM and 0.2562 µM and 0.2621 µM
same,SPE-MS determined concentration of hydroxylated HIF-1a peptide,"[2]; 16 uM compound 12, time 2.098 min",0.6815 µM and 0.5982 µM and 0.6264 µM
same,SPE-MS determined concentration of hydroxylated HIF-1a peptide,"[2]; 16 uM compound 12, time 2.797 min",0.848 µM and 0.7909 µM and 0.7891 µM
same,SPE-MS determined concentration of hydroxylated HIF-1a peptide,"[2]; 32 uM compound 12, time 0 min",0.0933 µM and 0.07278 µM and 0.06334 µM
same,SPE-MS determined concentration of hydroxylated HIF-1a peptide,"[2]; 32 uM compound 12, time 0.699833 min",0.2746 µM and 0.2712 µM and 0.2731 µM
same,SPE-MS determined concentration of hydroxylated HIF-1a peptide,"[2]; 32 uM compound 12, time 2.098 min",0.594 µM and 0.6472 µM and 0.6437 µM
same,SPE-MS determined concentration of hydroxylated HIF-1a peptide,"[2]; 32 uM compound 12, time 2.797 min",0.7489 µM and 0.8116 µM and 0.8049 µM
same,slope of initial reaction rate,"[2]; CA1-20, 0.25 μM 12",0.003176 and 0.003306
same,slope of initial reaction rate,"[2]; CA1-20, 0.5 μM 12",0.006776 and 0.007676 and 0.008102
same,slope of initial reaction rate,"[2]; CA1-20, 1 μM 12",0.01054 and 0.007937 and 0.01116
same,slope of initial reaction rate,"[2]; CA1-20, 2 μM 12",0.01217 and 0.0142 and 0.01263
same,slope of initial reaction rate,"[2]; CA1-20, 4 μM 12",0.01597 and 0.01096 and 0.0129
same,slope of initial reaction rate,"[2]; CA1-20, 8 μM 12",0.01648 and 0.01721 and 0.01973
same,slope of initial reaction rate,"[2]; HIF-1a788-822, 0.25 μM 12",0.000487 and 0.000839 and 0.000746
same,slope of initial reaction rate,"[2]; HIF-1a788-822, 0.5 μM 12",0.000918 and 0.001031 and 0.00127
same,slope of initial reaction rate,"[2]; HIF-1a788-822, 1 μM 12",0.001321 and 0.001828 and 0.001913
same,slope of initial reaction rate,"[2]; HIF-1a788-822, 2 μM 12",0.00207 and 0.002424 and 0.002687
same,slope of initial reaction rate,"[2]; HIF-1a788-822, 4 μM 12",0.004223 and 0.003389 and 0.00353
same,slope of initial reaction rate,"[2]; HIF-1a788-822, 8 μM 12",0.004209 and 0.004298 and 0.003737
same,slope of initial reaction rate,"[2]; HIF-1a788-822, 16 μM 12",0.004508 and 0.004326 and 0.004345
same,slope of initial reaction rate,"[2]; HIF-1a788-822, 32 μM 12",0.003886 and 0.004421 and 0.004419
